In the series the test system is Rattus norvegicus.
Setting [1] is: short-term, duration: 4 weeks, inhalation, F, Wistar, Adrenal: Adrenal Cortex, Minimal Diffuse Hypertrophy + Blood: Calcium (CA), Blood + Blood: Chloride (CL), Blood + Blood: Inorganic ….
[2] abbreviates: short-term, duration: 4 weeks, inhalation, F, Wistar, Blood: Albumin/Globulin (A/G) Ratio + Blood: Globulin (G), Blood + Blood: Glucose (GLU), Blood + Blood: Potassium (K), Blood + Kidney: Urea….
Where [3] appears, read: short-term, duration: 4 weeks, inhalation, M, Wistar, Adrenal: Adrenal Cortex, Minimal Diffuse Hypertrophy + Blood: Calcium (CA), Blood + Blood: Total Protein (TP), Blood + Liver: Aspartate ….
The mark [4] stands for this setting: short-term, duration: 4 weeks, inhalation, M, Wistar, Blood: Chloride (CL), Blood + Blood: Glucose (GLU), Blood + Blood: Hematocrit (HCT) + Blood: Hemoglobin (HGB) + Blood: Red Blood Cell (RBC….
Where [5] appears, read: short-term, duration: 28 days, oral, gavage, F, Sprague-Dawley, Blood: Hematocrit (HCT) + Blood: Hemoglobin (HGB) + Blood: Red Blood Cell (RBC) + Blood: White Blood Cell (WBC) + Kidney: Total Protein (TP….
The mark [6] stands for this setting: short-term, duration: 28 days, oral, gavage, F, Sprague-Dawley, Blood: Lymphocyte + Blood: Mean Corpuscular Volume (MCV) + Blood: Monocytes + Central Nervous System: Spontaneous Locomotion + Intestine: ….
The mark [7] stands for this setting: short-term, duration: 28 days, oral, gavage, F, Sprague-Dawley, Blood: Prothrombin Time (PT) + Renal: Albumin (A), Urine.
Setting [8] is: short-term, duration: 28 days, oral, gavage, M, Sprague-Dawley, Blood: Hematocrit (HCT) + Blood: Hemoglobin (HGB) + Blood: White Blood Cell (WBC) + Central Nervous System: Spontaneous Locomotion + Hair/….
[9] abbreviates: short-term, duration: 28 days, oral, gavage, M, Sprague-Dawley, Blood: Mean Cell Hemoglobin (MCH) + Blood: Mean Corpuscular Hemoglobin Concentration (MCHC) + Blood: Mean Corpuscular Volume (MCV) + Blood: ….
The mark [10] stands for this setting: short-term, duration: 28 days, oral, gavage, M, Sprague-Dawley, Hair/Fur: Alopecia + Lung: Respiration Rate.
Setting [11] is: short-term, duration: 28 days, oral, gavage, M, Sprague-Dawley, Liver: Liver Weight, Relative.
Setting [12] is: developmental, duration: 14 days, oral, gavage, M/F, Hsd. Han: WIST, generation: F1, F1: Developmental: Bone: Skeletal Variations + F1: Developmental: Placenta: Placenta Weight, Absolute + F1: Developmental: Placenta: ….
Where [13] appears, read: developmental, duration: 14 days, oral, gavage, M/F, Wistar Han, generation: F1, F1: Placenta: Placenta Weight, Absolute + F1: Whole Body: Body Weight, Fetal + F1: Whole Body: Fetal Skeletal Variations.
Setting [14] is: reproduction developmental, duration: 14 days, oral, gavage, F, Hsd. Han: WIST, generation: P0, P0: Developmental: Uterus: Implantation + P0: Developmental: Uterus: Post-Implantation Loss + P0: Developmental: Uterus: Pre-Implantation ….
The mark [15] stands for this setting: reproduction developmental, duration: 14 days, oral, gavage, F, Wistar Han, generation: P0, P0: Kidney: Necropsy, Kidney Observation + P0: Small Intestine: Necropsy, Small Intestine Observation + P0: Stomach: Necropsy, Stomach ….
Setting [16] is: short-term, duration: 28 days, oral, gavage, F, Sprague-Dawley, Adrenal: Adrenal Gland Weight, Absolute + Adrenal: Adrenal Gland Weight, Relative.
[17] abbreviates: short-term, duration: 28 days, oral, gavage, M/F, Sprague-Dawley, Liver: Liver Histopathology.
Where [18] appears, read: short-term, duration: 28 days, oral, gavage, M, Sprague-Dawley, Adrenal: Adrenal Gland Weight, Absolute + Adrenal: Adrenal Gland Weight, Relative.

The source of these data is EPA's ToxValDB 9.5.

Values joined by “and” are separate entries in the source; they are usually repeats but may differ in a detail not shown here. Equal entries are not always repeated.

For the compound `FC(F)(I)C(F)(F)C(F)(F)C(F)(F)C(F)(F)C(F)(F)I` [1,6-Diiodoperfluorohexane], the LOAEL reads like this: under setting [1], 45.1 mg/m3; under setting [2], 14.4 mg/m3; (short-term, duration: 4 weeks, inhalation, F, Wistar, Blood: Cholesterol (CHOL), Total, Blood + Blood: Hematocrit (HCT) + Blood: Hemoglobin (HGB) + Blood: Red Blood Cell (RBC) + Brain: Brain …) 4.48 mg/m3 and 4.49 mg/m3; under setting [3], 45.1 mg/m3; (short-term, duration: 4 weeks, inhalation, M, Wistar, Adrenal: Adrenal Gland Weight, Relative + Blood: Globulin (G), Blood + Blood: Inorganic Phosphorous (PHOS), Blood + Blood: Reticulocytes + …) 4.48 mg/m3 and 4.49 mg/m3; under setting [4], 14.4 mg/m3. Also, the LOAEL (short-term, duration: 28 days, oral, gavage, F, Sprague-Dawley, Blood: Activated Partial Thromboplastin Time (APTT) + Blood: Albumin/Globulin (A/G) Ratio + Blood: Mean Cell Hemoglobin (MCH) + Blood: Mean …) came out at 1 mg/kg-day; the LOAEL under setting [5] was found to be 3 mg/kg-day; the LOAEL under setting [6] is 10 mg/kg-day; the LOAEL under setting [7] worked out at 20 mg/kg-day; the LOAEL (short-term, duration: 28 days, oral, gavage, M, Sprague-Dawley, Adrenal: Adrenal Gland Weight, Relative + Blood: Activated Partial Thromboplastin Time (APTT) + Blood: Albumin/Globulin (A/G) Ratio + Brain…) was 1 mg/kg-day; the LOAEL under setting [8] turned out to be 3 mg/kg-day. Besides, the LOAEL is 10 mg/kg-day under setting [9] and 20 mg/kg-day under setting [10]. Further, the NOAEL by setting is: under setting [1], 14.4 mg/m3; (short-term, duration: 4 weeks, inhalation, F, Wistar, Adrenal: Adrenal Gland Weight, Relative + Basophils + Blood: Activated Partial Thromboplastin Time (APTT) + Blood: Mean Corpuscular …) 45.1 mg/m3; under setting [2], 4.48 mg/m3 and 4.49 mg/m3; under setting [3], 14.4 mg/m3; (short-term, duration: 4 weeks, inhalation, M, Wistar, Basophils + Blood: Activated Partial Thromboplastin Time (APTT) + Blood: Albumin/Globulin (A/G) Ratio + Blood: Mean Corpuscular Hemoglobin (…) 45.1 mg/m3; under setting [4], 4.48 mg/m3 and 4.49 mg/m3. In addition, the NOAEL is 20 mg/kg-day (short-term, duration: 28 days, oral, gavage, F, Sprague-Dawley, Adrenal: Adrenal Gland Histopathology + Adrenal: Adrenal Gland Weight, Relative + Blood: Globulin (G) + Blood: Phosphorous (inorganic) (PHOS…); 1 mg/kg-day under setting [5]; 3 mg/kg-day under setting [6]; 10 mg/kg-day under setting [7]; 20 mg/kg-day (short-term, duration: 28 days, oral, gavage, M, Sprague-Dawley, Adrenal: Adrenal Gland Histopathology + Blood: Globulin (G) + Blood: Lymphocyte + Blood: Monocytes + Blood: Platelet Count (PLT) + Blood: …); 1 mg/kg-day under setting [8]. The NOAEL under setting [9] is 3 mg/kg-day and the NOAEL under setting [10] was determined as 10 mg/kg-day.
Consider `FC(F)C(F)(F)C(F)(F)C(F)(F)C(F)(F)C(F)(F)F` [1H-Perfluorohexane], for which the NOAEL (developmental, duration: 20 days, parental, M/F, Wistar, generation: F1, F1: Thyroid: Thyroxine (T4) + F1: Trunk: Anogenital Distance + F1: Whole Body: Body Weight, Fetal + F1: Whole Body: Clinical Observations + …) came out at 1000 mg/kg-day; the NOAEL (reproduction developmental, duration: 20 days, parental, M, Wistar, generation: F1, F1: Trunk: Areola/Nipple Retention) came out at 1000 mg/kg-day; the NOAEL (reproduction developmental, duration: 29 days, oral, gavage, M, Wistar, generation: P0, P0: Epididymis: Epididymis Weight, Absolute + P0: Prostate: Prostate Weight, Absolute + P0: Seminal Vesicle: Seminal Vesicles Weight (w/o …) worked out at 1000 mg/kg-day; the NOAEL (reproduction developmental, duration: 29 days, oral, gavage, M, Wistar, generation: P0, P0: Peripheral Nervous System: Functional Observational Battery Tests + P0: Thyroid: Thyroid Gland Weight, Absolute + P0: Thyroid: Thyroxine…) amounted to 1000 mg/kg-day; the NOAEL (reproduction developmental, duration: 64 days, oral, gavage, F, Wistar, generation: P0, P0: Heart: Heart Gross Pathology + P0: Heart: Heart Histopathology + P0: Kidney: Kidney Gross Pathology + P0: Kidney: Kidney Histopathology…) was determined as 1000 mg/kg-day; the NOAEL (reproduction developmental, duration: 64 days, oral, gavage, F, Wistar, generation: P0, P0: Testis: Ovary Histopathology + P0: Uterus: Estrous Cyclicity + P0: Uterus: Implantation + P0: Whole Body: Conception Index + P0: Whole …) was 1000 mg/kg-day. Further, the NOAEL came out at 1000 mg/kg-day (short-term, duration: 28 days, oral, gavage, F, Sprague-Dawley, Adrenal: Adrenal Gland Histopathology + Adrenal: Adrenal Gland Weight, Relative + Blood: Hematology, Unspecified + Brain: Brain Weight, …); 1000 mg/kg-day (short-term, duration: 28 days, oral, gavage, M, Sprague-Dawley, Adrenal: Adrenal Gland Histopathology + Adrenal: Adrenal Gland Weight + Blood: Hematology, Unspecified + Brain: Brain Weight, Relative + …); 200 mg/kg-day under setting [11]. Besides, the LOAEL under setting [11] was found to be 1000 mg/kg-day.
Regarding `C=C(C)C(=O)OCCC(F)(F)C(F)(F)C(F)(F)C(F)(F)C(F)(F)C(F)(F)F` [2-(Perfluorohexyl)ethyl methacrylate], the LOAEL stood at 1000 mg/kg-day under setting [12] and 1000 mg/kg-day under setting [14]. The NOAEL is, setting by setting: under setting [12], 320 mg/kg-day; under setting [14], 320 mg/kg-day; (reproduction developmental, duration: 14 days, oral, gavage, F, Hsd. Han: WIST, generation: P0, P0: Reproductive: Ovary: Corpora Lutea) 1000 mg/kg-day. The LEL by setting is: under setting [13], 1000 mg/kg-day; under setting [15], 1000 mg/kg-day; (short-term, duration: 28 days, oral, gavage, F, Crl:CD(SD), Liver: Liver Weight, Absolute + Liver: Liver Weight, Relative + Teeth: Decreased Iron Pigment, Ameloblasts (28 d) + Teeth: Teeth, Mottled (…) 25 mg/kg-day; (short-term, duration: 28 days, oral, gavage, M, Crl:CD(SD), Kidney: Kidney Weight, Relative + Teeth: Decreased Iron Pigment, Ameloblasts (28 d) + Teeth: Teeth, Mottled (42 d)) 25 mg/kg-day. The NEL is 320 mg/kg-day under setting [13]; 1000 mg/kg-day (developmental, duration: 14 days, oral, gavage, M/F, Wistar Han, generation: F1, F1: Placenta: Placenta Weight, Relative + F1: Uterus: Fetuses, Dead + F1: Uterus: Fetuses, Live + F1: Whole Body: Fetal External …); 320 mg/kg-day under setting [15]; 1000 mg/kg-day (reproduction developmental, duration: 14 days, oral, gavage, F, Wistar Han, generation: P0, P0: Ovary: Corpora Lutea + P0: Uterus: Implantation + P0: Uterus: Post-Implantation Loss + P0: Uterus: Pre-Implantation Loss + P0: Whole …); 25 mg/kg-day (short-term, duration: 28 days, oral, gavage, F, Crl:CD(SD), Adrenal: Adrenal Gland Weight, Absolute + Adrenal: Adrenal Gland Weight, Absolute, Recovery + Adrenal: Adrenal Gland Weight, Relative + …); 5 mg/kg-day (short-term, duration: 28 days, oral, gavage, F, Crl:CD(SD), Liver: Liver Weight, Absolute + Liver: Liver Weight, Relative + Teeth: Decreased Iron Pigment, Ameloblasts (28 d)). In addition, the NEL came out at 25 mg/kg-day (short-term, duration: 28 days, oral, gavage, M, Crl:CD(SD), Adrenal: Adrenal Gland Weight, Absolute + Adrenal: Adrenal Gland Weight, Absolute, Recovery + Adrenal: Adrenal Gland Weight, Relative + …) and 5 mg/kg-day (short-term, duration: 28 days, oral, gavage, M, Crl:CD(SD), Kidney: Kidney Weight, Relative + Teeth: Decreased Iron Pigment, Ameloblasts (28 d)).
`CCOC(F)(C(F)(F)C(F)(F)C(F)(F)F)C(F)(C(F)(F)F)C(F)(F)F` (stereo not drawn) [3-Ethoxyperfluoro(2-methylhexane)]: the NOAEL reads like this: (developmental, duration: 26 days, parental, M/F, Sprague-Dawley, generation: F1, F1: Whole Body: Clinical Observations + F1: Whole Body: Litter Size + F1: Whole Body: Necropsy Appeared Normal + F1: Whole Body: Pup Body …) 1000 mg/kg-day; (reproduction developmental, duration: 2 weeks, oral, gavage, F, Sprague-Dawley, generation: P0, P0: Ovary: Ovary, Non-Neoplastic Lesions + P0: Uterus: Estrous Cycle + P0: Uterus: Implantation + P0: Whole Body: Clinical Observations + P0…) 1000 mg/kg-day; (reproduction developmental, duration: 2 weeks, oral, gavage, M, Sprague-Dawley, generation: P0, P0: Epididymis: Epididymis Weight, Absolute + P0: Epididymis: Epididymis Weight, Relative + P0: Epididymis: Epididymis, Non-Neoplastic …) 1000 mg/kg-day; under setting [16], 200 mg/kg-day; (short-term, duration: 28 days, oral, gavage, F, Sprague-Dawley, Ovary: Ovary Weight, Absolute + Ovary: Ovary Weight, Relative + Spleen: Spleen Weight, Absolute) 1000 mg/kg-day; (short-term, duration: 28 days, oral, gavage, M/F, Sprague-Dawley, Blood: Clinical Chemistry, Unspecified + Kidney: Urinalysis, Unspecified + Whole Body: Body Weight Change + Whole Body: Clinical …) 1000 mg/kg-day. Further, the NOAEL by setting is: under setting [17], 200 mg/kg-day; under setting [18], 200 mg/kg-day. Further, the LOAEL reads like this: under setting [16], 1000 mg/kg-day; (short-term, duration: 28 days, oral, gavage, F, Sprague-Dawley, Spleen: Spleen Weight, Relative) 40 mg/kg-day; under setting [17], 1000 mg/kg-day; under setting [18], 1000 mg/kg-day; (short-term, duration: 28 days, oral, gavage, M, Sprague-Dawley, Spleen: Spleen Weight, Absolute + Spleen: Spleen Weight, Relative) 40 mg/kg-day.
